Assay: xn = mol fraction of the nth substance listed
Conditions: Liquid, Pycnometric method

Cn1ccnc1 [1-methylimidazole] + O=C=O
mass density [kg/m3]
Conditions | 317.9 K | 322.7 K
10720 kPa, x1 = 0.0102 | – | 558
10820 kPa, x1 = 0.0102 | – | 568
10930 kPa, x1 = 0.0102 | – | 578
11040 kPa, x1 = 0.0102 | – | 589
11140 kPa, x1 = 0.0102 | – | 600
11270 kPa, x1 = 0.0102 | – | 612
11430 kPa, x1 = 0.0102 | – | 624
11460 kPa, x1 = 0.0247 | – | 701
11570 kPa, x1 = 0.0247 | – | 706
11610 kPa, x1 = 0.0102 | – | 636
11730 kPa, x1 = 0.0247 | – | 712
11810 kPa, x1 = 0.0102 | – | 649
11910 kPa, x1 = 0.0247 | – | 719
11960 kPa, x1 = 0.0247 | 774 | –
11970 kPa, x1 = 0.0487 | 825 | –
12030 kPa, x1 = 0.0102 | – | 663
12080 kPa, x1 = 0.0487 | 827 | –
12090 kPa, x1 = 0.0247 | – | 726
12100 kPa, x1 = 0.0102 | 731 | –
12210 kPa, x1 = 0.0487 | 830 | –
12290 kPa, x1 = 0.0247 | 781 | –
12300 kPa, x1 = 0.0102 | – | 677
12300 kPa, x1 = 0.0247 | – | 733
12350 kPa, x1 = 0.0487 | 833 | –
12480 kPa, x1 = 0.0487 | 836 | –
12520 kPa, x1 = 0.0247 | – | 740
12640 kPa, x1 = 0.0102 | 749 | 692
12640 kPa, x1 = 0.0487 | 838 | –
12750 kPa, x1 = 0.0247 | – | 747
12820 kPa, x1 = 0.0247 | 793 | –
12930 kPa, x1 = 0.0487 | 843 | –
13150 kPa, x1 = 0.1024 | 919 | –
13260 kPa, x1 = 0.0102 | 766 | –
13300 kPa, x1 = 0.0487 | 849 | –
13400 kPa, x1 = 0.1024 | 922 | –
13440 kPa, x1 = 0.0247 | 806 | –
13660 kPa, x1 = 0.0487 | 854 | –
13720 kPa, x1 = 0.1024 | 925 | –
13980 kPa, x1 = 0.1024 | 927 | –
14030 kPa, x1 = 0.0487 | 860 | –
14060 kPa, x1 = 0.0102 | 785 | –
14140 kPa, x1 = 0.0247 | 819 | –
14310 kPa, x1 = 0.1024 | 930 | –
14450 kPa, x1 = 0.0487 | 866 | –
14560 kPa, x1 = 0.1024 | 933 | –
14670 kPa, x1 = 0.0247 | 828 | –
14710 kPa, x1 = 0.1024 | 934 | –
14880 kPa, x1 = 0.1024 | 936 | –
15050 kPa, x1 = 0.0102 | 806 | –
15130 kPa, x1 = 0.1024 | 938 | –
15280 kPa, x1 = 0.0247 | 837 | –
15330 kPa, x1 = 0.1024 | 939 | –
15480 kPa, x1 = 0.1024 | 941 | –
15570 kPa, x1 = 0.0247 | 841 | –
15630 kPa, x1 = 0.1024 | 942 | –
15890 kPa, x1 = 0.0102 | 821 | –
15920 kPa, x1 = 0.0247 | 846 | –
15950 kPa, x1 = 0.1024 | 944 | –
16260 kPa, x1 = 0.0247 | 851 | –
16380 kPa, x1 = 0.1024 | 947 | –
16620 kPa, x1 = 0.0247 | 855 | –
16800 kPa, x1 = 0.1024 | 950 | –
16910 kPa, x1 = 0.0102 | 837 | –
17010 kPa, x1 = 0.0247 | 860 | –
17180 kPa, x1 = 0.1024 | 953 | –
17600 kPa, x1 = 0.1024 | 956 | –
18050 kPa, x1 = 0.1024 | 959 | –
18370 kPa, x1 = 0.1024 | 962 | –
18750 kPa, x1 = 0.1024 | 964 | –
18990 kPa, x1 = 0.1024 | 965 | –

— the NIST ThermoML archive (doi:10.1021/je900387e)
